In patent US6004972A, “Therapeutic process for the treatment of the pathologies of type II diabetes” (The Board of Supervisiors of Louisiana State University and …, priority 1998, dated 1999):
Several values for one entry are separate records, joined by “and”; a condition that tells them apart may be missing. Identical values can stand only once.

What was measured:
Type II diabetes [1] = assay: Oral bromocriptine in a person treated with diabenase (Example 3); format: in vivo, human
Description: A person was being treated with a hypoglycemic agent (diabenase) which had reduced the blood glucose of the patient from 250 mg/dl to about 180 mg/dl during one year of treatment. […] Removal of the hypoglycemic agent allowed glucose levels to rise and remain near 100 mg/dl (a normal level) in the succeeding two months.

[2] = test system: circadian rhythms of plasma cortisol and prolactin in adult female pigs; assay: Circadian plasma cortisol and prolactin levels in pigs given bromocriptine implants; format: in vivo, pig (swine); settings: for Plasma Cortisol Level: implant 10 mg/pig/day
Description: Adult female pigs, six in number, were given bromocryptine implants (10 mg/pig/day) lasting over a period of time while the pigs were subjected to daily periods of daylight and darkness (12:12). […] A control group of six pigs were similarly treated to periods of daylight and darkness except that no bromocryptine was administered to the pigs of the control group. The period of darkness was from 1800 to 0600, and the period of daylight from 0600 to 1800. Daily tests were made of the blood of the pigs at four hour intervals over a 14 day period to determine the plasma cortisol level (μg/dl) and plasma prolactin level […] of both groups. The average for each series of tests made on each group are given as follows: […]

adult female pigs = assay: Effects of bromocriptine implants on fat stores and plasma triglyceride, glucose and insulin in pigs; format: in vivo, pig (swine)
Description: Adult female pigs, six in number, were given bromocryptine implants (10 mg/pig/day) lasting over a period of time while the pigs were subjected to daily periods of daylight and darkness (12:12). […] A control group of six pigs were similarly treated to periods of daylight and darkness except that no bromocryptine was administered to the pigs of the control group. The period of darkness was from 1800 to 0600, and the period of daylight from 0600 to 1800. Daily tests were made of the blood of the pigs at four hour intervals over a 14 day period to determine the plasma cortisol level (μg/dl) and plasma prolactin level […] of both groups. The average for each series of tests made on each group are given as follows:
Notes: Backfat thickness was used as an index in determining fat stores.
Plasma was sampled at 1600, 2000 and 2400 after two weeks of treatment. Each pig of the treatment group and control group was sampled.

symptoms of diabetes = assay: Oral bromocriptine in a diabetic (Example 2); format: in vivo, human; settings: 1.25-2.50 mg/day orally just after awakening
Description: At the beginning of the treatment, blood glucose concentration was shown by routine testing to be near 250 mg/dl. […] Fasting levels below 120 mg/dl are considered normal.

Type II diabetes [3] = assay: Oral bromocriptine in a diabetic (Example 4); format: in vivo, human; settings: parlodel 2.5 mg/day orally, 2.5 months
Description: A person weighing nearly 300 pounds was known to be a diabetic but had resisted all previous admonitions for treatment. […] Body weight has dropped 22 pounds and plasma glucose levels decreased to 160 mg/dl.

[4] = test system: noninsulin dependent (Type II) diabetes; assay: Timed oral bromocriptine in fifteen persons with noninsulin dependent (Type II) diabetes (Example 5); format: in vivo, human; settings: for Body Fat Loss / Plasma Glucose (% initial) / Skinfold Measurements (% initial): p < 0.05
Description: The participants were carefully instructed not to alter their daily activity or eating habits during the course of treatment.
Skinfold thickness was measured on the left side of the body by a trained anthropometrist in four regions: biceps, triceps, subscapular, and suprailiac, following the recommendations of the International Biological Program. Because of its frequent use, percent body fat was estimated from the common logarithm of the sum of the four skinfolds, using the equations of Durnin and Rahman and of Siri. […] Skinfold measurements were taken initially and at weekly intervals by the same individual. Blood pressure was also determined at these times. Morning fasting plasma glucose in the diabetic group was determined initially and after 4-8 weeks.

body fat stores = settings: injections at different times of day; cited from earlier work
[5] = parlodel 1.25-2.5 mg/day orally
[6] = subjects on hypoglycemic drugs (8), 4-8 weeks
[7] = subjects receiving insulin (7), 4-8 weeks

For `CCCNC(=O)NS(=O)(=O)c1ccc(Cl)cc1` [diabenase], the blood glucose level (Type II diabetes [1]; diabenase alone, one year of treatment, from 250 mg/dl) was “about 180 mg/dl”.

In the case of `CC(C)C[C@H]1C(=O)N2CCC[C@H]2[C@]2(O)O[C@](NC(=O)[C@@H]3C=C4c5cccc6[nH]c(Br)c(c56)C[C@H]4N(C)C3)(C(C)C)C(=O)N12` [bromocriptine, 2-bromo-alpha-ergocryptine], the “phase relationships of the circadian rhythms of plasma corticosteroid and prolactin concentrations” value ([2]; implant) is reported as “altered the phase relationships”, the “Plasma Cortisol Level” value ([2]; LD 12:12, time 0400, control 5.5) is reported as 3.2 µg/dL and the “Plasma Cortisol Level” value ([2]; LD 12:12, time 0800, control 4.8) is reported as 1.9 µg/dL. The “Plasma Cortisol Level” value ([2]; LD 12:12, time 1200, control 3.4) was 1.5 µg/dL, the “Plasma Cortisol Level” value ([2]; LD 12:12, time 1600, control 1.6) was 3.2 µg/dL and the “Plasma Cortisol Level” value ([2]; LD 12:12, time 2000, control 1.9) was 2.8 µg/dL. For the same molecule, the “Plasma Cortisol Level” value ([2]; LD 12:12, time 2400, control 2.7) was 3.5 µg/dL, the Backfat (adult female pigs; 10 mg/day/pig implant, 28 days after treatment) was 86 % control and the “Triglyceride (plasma)” value (adult female pigs; 10 mg/day/pig implant, two weeks, sampled 1600, 2000 and 2400, control 52 ± 8) was 27 ± 3 mg/dL. The “Glucose (plasma)” value (adult female pigs; 10 mg/day/pig implant, two weeks, sampled 1600, 2000 and 2400, control 99 ± 5) was 86 ± 3 mg/dL, the “reduction in plasma insulin concentration” value (adult female pigs; implant) was “not statistically significant” and the “reduction of body fat stores” value (adult female pigs; implant, 28 day period of treatment) was 14%. The “reduction of plasma glucose levels” value (adult female pigs; implant, early period of darkness (2000-2400)) was 13%, the “reduction of plasma triglyceride concentration” value (adult female pigs; implant, near sunset) was 48% and the “reduction of body weight” value (symptoms of diabetes) was “about 12%”. For the same molecule, the “reduction of indices of body fat” value (symptoms of diabetes) was “about 12%”, the blood glucose concentration (symptoms of diabetes; successive levels in following weeks, initial near 250 mg/dl) was 180 mg/dL and 155 mg/dL and 135 mg/dL and 97 mg/dL and 101 mg/dL and the blood glucose level (Type II diabetes [1]; after removal of hypoglycemic agent, succeeding two months) was about 100 mg/dL. For the same molecule, the “reduction of body fat” value (Type II diabetes [1]; [5]) was “about 10%”, the “reduction of body weight” value (Type II diabetes [1]; [5]) was “about 10%” and the blood glucose level (Type II diabetes [1]; parlodel 1.25-2.5 mg/day orally, about an hour after awakening, with diabenase, 2 weeks, from about 180 mg/dl) was 80 mg/dL. For the same molecule, the plasma glucose level (Type II diabetes [3]; initial near 350 mg/dl) was 160 mg/dL, the “drop in body weight” value (Type II diabetes [3]; two to three hours after awakening, initial nearly 300 pounds) was 22 pounds and the transient anorexic effects ([4]; 1.25 mg for 2-3 days then 2.5 mg daily, oral) was “did not occur”. For the same molecule, the “mild nausea, participants” value ([4]; 1.25 mg for 2-3 days then 2.5 mg daily, oral, transient, first few days) was under 10%, the “reductions in body fat” value ([4]; after 6 weeks without food restriction) was 4.4 % of the body weight and the “blood glucose concentrations and skinfold measurements” value ([4]; all subjects, 4-8 weeks) was “reduced in every diabetic subject”. For the same molecule, the “doses of hypoglycemic drugs and insulin” value ([4]; during bromocriptine treatment) was “reduced in three other subjects”, the “oral hypoglycemic medication discontinued” value ([4]; during bromocriptine treatment) was “completely discontinued during bromocriptine treatment in three individuals” and the “fat loss, average” value ([4]; present study) was 1.4 pounds per week. The “Body Fat, final” value ([4]; subjects on hypoglycemic drugs (8), 4-8 weeks, initial 36.5 ± 2.3, p < 0.05) was 32.9 ± 2.0 % Body Weight, the “Plasma Glucose, final (fasting)” value ([4]; subjects on hypoglycemic drugs (8), 4-8 weeks, initial 231 ± 19, p < 0.05) was 166 ± 19 mg/dL and the “Total Body Weight, final” value ([4]; subjects on hypoglycemic drugs (8), 4-8 weeks, initial 255 ± 21) was 253 ± 20 pounds. The “Loss of Body Weight” value ([4]; subjects on hypoglycemic drugs (8), 4-8 weeks, not statistically significant) was -2.4 ± 2.0 pounds, the “Body Fat Loss” value [4, 6] was -10.0 ± 2.2 pounds and the “Plasma Glucose (% initial)” value [4, 6] was 72 ± 6 % initial. For the same molecule, the “Skinfold Measurements (% initial)” value [4, 6] was 79 % initial, the “Loss of Body Weight” value [4, 7] was -0.4 ± 2.0 pounds and the “Body Fat, final” value ([4]; subjects receiving insulin (7), 4-8 weeks, initial 33.4 ± 2.2, p < 0.05) was 31.7 ± 1.7 % Body Weight. For the same molecule, the “Body Fat Loss” value [4, 7] was -3.1 ± 0.9 pounds, the “Plasma Glucose (% initial)” value [4, 7] was 65 ± 8 % initial and the “Skinfold Measurements (% initial)” value [4, 7] was 84 % initial. For the same molecule, the “mean loss of body fat” value ([4]; subjects taking hypoglycemic drugs, 4-8 weeks) was 10 pounds, the “mean reduction in skinfold measurements” value ([4]; subjects taking hypoglycemic drugs, four regions, 4-8 weeks) was 21% and the “reduction of body weight” value ([4]; subjects taking hypoglycemic drugs, not statistically significant) was 2.4 pounds per subject. The “decline in total body fat” value ([4]; subjects taking hypoglycemic drugs, within 4 to 8 weeks) was 10.7%, the “reduction in % body fat” value ([4]; subjects taking insulin) was 5.1 and the “reduction in body fat” value ([4]; subjects taking insulin) was 3.1 pounds. For the same molecule, the reduction in skinfold ([4]; subjects taking insulin) was 16%, the “reduction of body weight” value ([4]; subjects taking insulin) was “not at all reduced” and the “blood glucose levels after termination of bromocriptine” value ([4]; three individuals off oral hypoglycemic medication, at least two months after bromocriptine terminated) was under 120 mg/dL.

B1: Prolactin: a hormone secreted by the pituitary (protein, UniProt P01236 29-227, looked up)
Prolactin: LPICPGGAARCQVTLRDLFDRAVVLSHYIHNLSSEMFSEFDKRYTHGRGFITKAINSCHTSSLATPEDKEQAQQMNQKDFLSLIVSILRSWNEPLYHLVTEVRGMQEAPEAILSKAVEIEEQTKRLLEGMELIVSQVHPETKENEIYPVWSGLPSLQMADEESRLSAYYNLLHCLRRDSHKIDNYLKLLKCRIIHNNNC
In the case of B1, the stimulation of fattening (body fat stores) is listed as “stimulate fattening only when injected at certain times of the day”.
